Laboratory results taken from ChEMBL document CHEMBL5724914, “Linking interpersonal differences in gut microbiota composition and drug biotransformation activity” (2024).

Key:
[1] = (§1) The drug is tested on Z-030 corresponding to mouse gut metagenome with ENA study accession number: PRJEB37062 and ENA sample accession number: ERS12561829 for biotransformation under anaerobic condition. The drug concentrations were measured over 9 timepoints collected between 0 and 24 hours of incubation by liquid-chromatography-coupled mass spectrometry (LC–MS); conditions: 2 µM
[2] = human gut metagenome, 24 h, 2 µM
[3] = as §1, with “Z-021” for “Z-030”, “to” for “to mouse gut”, “ERS12561820” for “ERS12561829”; conditions: 2 µM
[4] = as §1, with “Z-027” for “Z-030”, “to” for “to mouse gut”, “ERS12561826” for “ERS12561829”; conditions: 2 µM
[5] = as §1, with “Z-026” for “Z-030”, “to” for “to mouse gut”, “ERS12561825” for “ERS12561829”; conditions: 2 µM
[6] = as §1, with “WLS-006” for “Z-030”, “human” for “mouse”, “ERS12561741” for “ERS12561829”; conditions: 2 µM
[7] = as §1, with “WLS-086” for “Z-030”, “human” for “mouse”, “ERS12561752” for “ERS12561829”; conditions: 2 µM
[8] = human gut metagenome, 24 h, 2 µM; remark: listed apart in the source
[9] = human gut metagenome, 24 h, 2 µM; remark: listed apart in the source
[10] = human gut metagenome, 24 h, 2 µM; remark: listed apart in the source
[11] = human gut metagenome, 24 h, 2 µM; remark: listed apart in the source
[12] = as §1, with “Z-014” for “Z-030”, “rat” for “mouse”, “ERS12561814” for “ERS12561829”; conditions: 2 µM
[13] = human gut metagenome, 24 h, 2 µM; remark: listed apart in the source
[14] = as §1, with “WLS-027” for “Z-030”, “human” for “mouse”, “ERS12561744” for “ERS12561829”; conditions: 2 µM
[15] = as §1, with “WLS-007” for “Z-030”, “human” for “mouse”, “ERS12561742” for “ERS12561829”; conditions: 2 µM
[16] = human gut metagenome, 24 h, 2 µM; remark: listed apart in the source
[17] = human gut metagenome, 24 h, 2 µM; remark: listed apart in the source
[18] = as §1, with “WLS-310” for “Z-030”, “human” for “mouse”, “ERS12561785” for “ERS12561829”; conditions: 2 µM
[19] = as §1, with “WLS-220” for “Z-030”, “human” for “mouse”, “ERS12561769” for “ERS12561829”; conditions: 2 µM
[20] = as §1, with “Z-025” for “Z-030”, “rabbit” for “mouse”, “ERS12561824” for “ERS12561829”; conditions: 2 µM
Also: call rule not given here.

Row | Compound | Bacterial Biotransformation [1] | Bacterial Biotransformation [2] | Bacterial Biotransformation [3] | Bacterial Biotransformation [4] | Bacterial Biotransformation [5] | Bacterial Biotransformation [6] | Bacterial Biotransformation [7] | Bacterial Biotransformation [8] | Bacterial Biotransformation [9] | Bacterial Biotransformation [10] | Bacterial Biotransformation [11] | Bacterial Biotransformation [12] | Bacterial Biotransformation [13] | Bacterial Biotransformation [14] | Bacterial Biotransformation [15] | Bacterial Biotransformation [16] | Bacterial Biotransformation [17] | Bacterial Biotransformation [18] | Bacterial Biotransformation [19] | Bacterial Biotransformation [20]
1 | CSc1ccc2c(c1)C(N1CCN(C)CC1)Cc1ccccc1S2.O=C(O)/C=C\C(=O)O (stereo unspecified) | Compound NOT metabolized | Compound NOT metabolized | Compound metabolized | Compound metabolized | Compound NOT metabolized | Compound NOT metabolized | Compound metabolized | Compound metabolized | Compound NOT metabolized | Compound NOT metabolized | Compound NOT metabolized | Compound NOT metabolized | Compound NOT metabolized | Compound NOT metabolized | Compound NOT metabolized | Compound NOT metabolized | Compound metabolized |  |  | 
2 | COc1ccc(/C=C/C(=O)Nc2ccccc2C(=O)O)cc1OC | Compound NOT metabolized | Compound NOT metabolized | Compound metabolized | Compound metabolized | Compound metabolized | Compound NOT metabolized | Compound NOT metabolized | Compound metabolized | Compound NOT metabolized |  | Compound NOT metabolized | Compound metabolized | Compound metabolized | Compound metabolized |  | Compound metabolized | Compound NOT metabolized | Compound metabolized | Compound NOT metabolized | Compound metabolized
3 | CCOC(=O)[C@H](CCc1ccccc1)N[C@@H](C)C(=O)N1CCC[C@H]1C(=O)O.O=C(O)/C=C\C(=O)O [ENALAPRIL MALEATE] | Compound NOT metabolized | Compound NOT metabolized | Compound metabolized | Compound NOT metabolized | Compound NOT metabolized | Compound NOT metabolized | Compound NOT metabolized | Compound NOT metabolized | Compound NOT metabolized | Compound NOT metabolized | Compound NOT metabolized |  | Compound NOT metabolized | Compound NOT metabolized | Compound NOT metabolized | Compound NOT metabolized | Compound NOT metabolized | Compound NOT metabolized | Compound NOT metabolized | Compound NOT metabolized
4 | CN1[C@@H]2CC[C@H]1C[C@@H](OC(=O)[C@H](CO)c1ccccc1)C2 [HYOSCYAMINE] | Compound NOT metabolized |  | Compound NOT metabolized | Compound NOT metabolized | Compound NOT metabolized |  | Compound metabolized | Compound metabolized | Compound NOT metabolized |  |  | Compound NOT metabolized | Compound NOT metabolized | Compound NOT metabolized | Compound metabolized | Compound metabolized | Compound metabolized | Compound metabolized |  | Compound NOT metabolized
5 | COC1=C(OC)C(=O)C(CCCCCCCCCCO)=C(C)C1=O [IDEBENONE] | Compound NOT metabolized |  | Compound metabolized | Compound NOT metabolized | Compound NOT metabolized |  |  |  |  |  | Compound metabolized | Compound metabolized |  | Compound metabolized | Compound metabolized | Compound metabolized | Compound metabolized | Compound metabolized |  | Compound metabolized
